From patent US7590493B2, “Methods for determining hepatotoxins” (priority 2000, dated 2009)

Legend:
[1] = cited from earlier work
[2] = in vivo; cited from earlier work
[3] = 24 hours, cited from earlier work
[4] = Inventors' rat studies: liver pathology and clinical chemistry
[5] = cited from earlier work; remark: listed apart in the source
c-fos, c-jun, c-myc = conditions: post dose, acute administration; cited from earlier work
[6] = cited from earlier work; remark: listed apart in the source
[7] = amitriptyline 600 mg/kg oral, PB 80 mg/kg IP, cited from earlier work; for microsomal phosphatidylcholine content: 6-24 hr
[8] = single oral dose 600 mg/kg, cited from earlier work
[9] = single dose, within 24 hours (Fracasso 1990); cited from earlier work
primary rat hepatocytes = conditions: in vitro; cited from earlier work
[10] = tested on: human hepatoma cell lines; conditions: in vitro; cited from earlier work

Compound: C#C[C@]1(O)CC[C@H]2[C@@H]3CCc4cc(O)ccc4[C@H]3CC[C@@]21C [17α-ethinylestradiol]
- bile flow ([1]; after 3 days of drug administration): decrease
- plasma cholesterol and plasma triglyceride levels ([1]; rat, in vivo): decrease
- plasma levels of bilirubin, bile salts, AST and ALT ([1]; rat, in vivo): not changed

Compound: S=C=Nc1cccc2ccccc12 [ANIT, alpha-naphthylisothiocyante]
- liver weight vs control-treated [2]: significantly heavier
- serum ALT, gamma-glutamyl transpeptidase, total bilirubin, lipid peroxide and total bile acids [2]: significant increases
- levels of total bilirubin, alkaline phosphatase, serum glutamic oxaloacetic transaminase and serum glutamic pyruvic transaminase ([3]; 80 mg/kg oral in olive oil): significantly increased
- total bile flow ([3]; 80 mg/kg oral): reduced

Compound: O=C(CCN1CCN2CCCC2C1)N1c2ccccc2Sc2ccc(Cl)cc21 (stereo not shown) [AY-25329]
- mitosis rates / mitotic activity ([4]; rat liver): increased
- glycogen levels ([4]; rat liver, all rats examined): decreased

Compound: CC(O)(CS(=O)(=O)c1ccc(F)cc1)C(=O)Nc1ccc(C#N)c(C(F)(F)F)c1 (stereo not shown) [Bicalutamide]
- hepatocellular hypertrophy ([4]; rat): minor degree
- mitosis rates / mitotic activity ([4]; rat liver): increase

Compound: ClC(Cl)(Cl)Cl [CCl4, carbon tetrachloride]
- ALT and AST peak levels, increase ([5]; 0.1, 1, 2, 3, 4 mL/kg ip, […] po, within 48 hours post dose): 5-10 fold
- serum α-glutathione s-transferase (α-GST) levels ([5]; 25 μL/kg po, as early as 2 hours): Significant increases
- time of peak hepatic mRNA level, c-fos (c-fos, c-jun, c-myc): 1 to 2 h
- time of peak hepatic mRNA level, c-jun (c-fos, c-jun, c-myc): 3 h
- time of peak hepatic mRNA level, c-myc (c-fos, c-jun, c-myc): 1 h

Compound: CC(=O)O[C@]1(C(C)=O)CC[C@H]2[C@@H]3C=C(Cl)C4=CC(=O)[C@@H]5C[C@@H]5[C@]4(C)[C@H]3CC[C@@]21C [CPA, cyproterone acetate]
- occurrence of S phase cells ([6]; rat liver): increased
- DNA repair activity ([6]; single oral dose 100 mg CPA/kg body weight, after 16 hours): continuous DNA repair activity was observed

Compound: CCOC(=O)C(C)(C)Oc1ccc(Cl)cc1 [Clofibrate]
- hepatocellular alterations ([4]; following early AST/ALT increases): dose-dependent
- mitosis rates / mitotic activity ([4]; rat liver): increased
- AST and ALT levels ([4]; rat, in vivo): early increases

Compound: CCC1(c2ccccc2)C(=O)NC(=O)NC1=O [PB, phenobarbital]
- microsomal phosphatidylcholine content [7]: increase

Compound: CN(C)CCC=C1c2ccccc2CCc2ccccc21 [amitriptyline]
- microsomal phosphatidylcholine content [7]: increase
- levels of GAT and PCT [7]: slightly affected
- levels of PPH and CPT [7]: significantly altered
- aminolevulinic acid (ALA) activity ([8]; 12 and 24 hours): marked increase
- cytochrome P450 (CYP450) content [8]: remained the same
- total heme and cytochrome b5 levels [8]: increased

Compound: COc1ccc2c(c1)c(CC(=O)O)c(C)n2C(=O)c1ccc(Cl)cc1 [indomethacin]
- liver and renal microsomal enzymes, including CYP450 [9]: reduce

Compound: Nc1c2c(nc3ccccc13)CCCC2 [tacrine]
- cytotoxicity (primary rat hepatocytes): displayed cytotoxicity
- cytotoxicity [10]: displayed cytotoxicity
